Measured values published in publication PMC2933744 (Biochemistry, 2008).

Tests used:
hPRMT1 [1] = target: T1, hPRMT1 (Homo sapiens, UniProt Q99873); test: Initial velocity studies; type: biochemical; details: for K(SAM) (Michaelis constant): pH 8.0, 37°C, fit to eq 2
hPRMT1 [2] = target: T1, hPRMT1; test: Dead-end analogue inhibition, AcH4-21 and SAM as substrates; type: biochemical; details: pH 8.0, 37°C

T1 sequence (Q99873 whole entry): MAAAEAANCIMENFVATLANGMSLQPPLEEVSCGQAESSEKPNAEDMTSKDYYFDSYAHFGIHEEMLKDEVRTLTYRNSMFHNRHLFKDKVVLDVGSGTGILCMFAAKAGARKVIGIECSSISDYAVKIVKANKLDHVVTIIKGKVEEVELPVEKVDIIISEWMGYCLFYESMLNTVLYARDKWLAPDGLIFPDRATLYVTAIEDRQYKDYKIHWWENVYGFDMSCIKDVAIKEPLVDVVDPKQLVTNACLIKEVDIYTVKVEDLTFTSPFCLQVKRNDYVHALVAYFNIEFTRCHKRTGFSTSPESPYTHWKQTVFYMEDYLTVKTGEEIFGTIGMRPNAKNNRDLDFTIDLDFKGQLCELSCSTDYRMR

SMILES: C[S+](CC[C@H](N)C(=O)[O-])C[C@H]1O[C@@H](n2cnc3c(N)ncnc32)[C@H](O)[C@@H]1O (stereo partly drawn) [SAM, S-adenosyl-L-methionine]
- K(SAM) (Michaelis constant) (hPRMT1 [1]; AcH4-21 varied, fixed SAM 1, 2.5, 7.5 µM): 8.35 ± 2.11
- Initial velocity pattern (double reciprocal plots) (hPRMT1 [1]; SAM and peptide varied at various fixed concentrations of the other substrate): intersect in the second quadrant
- K(SAM) (Michaelis constant) (hPRMT1 [1]; SAM varied, fixed AcH4-21 2.5, 5, 25 µM): 21.1 ± 4.0

SMILES: Nc1ncnc2c1ncn2[C@@H]1O[C@H](C[C@@H](N)CC[C@H](N)C(=O)O)[C@@H](O)[C@H]1O [Sinefungin]
- Kii (intercept Ki) (hPRMT1 [2]; AcH4-21 varied, fixed [SAM] = 15 µM, mixed fit eq 5): 470 ± 190 nM
- Inhibition pattern (hPRMT1 [2]; SAM varied, fixed AcH4-21 10 µM, 212 nM hPRMT1, at least duplicate): Competitive
